Key:
Calf-thymus DNA = Calf-thymus DNA aggregation (absorbance at 320 nm); type: biochemical; conditions: 50 mM NaCl, 1 mM Na-cacodylate pH 7.0
Procedure: Calf-thymus DNA aggregation by spermine and oligoamines.
Test for DNA Aggregation: DNA aggregation was studied using a Perkin-Elmer Lambda 25 UV/visible spectrophotometer connected to a PTP 6 heating unit using a previously published procedure (see Basu, H S and Marton, L J, “The interaction of spermine and pentamines with DNA,” Biochemical Journal 244:243-246 (1987)). Aggregation was determined in 50 mM NaCl, 1 mM Na-cacodylate pH 7.0 buffer by observing the increase in DNA absorbance (approximately 0.5 A260 units) at 320 nm.

DU145 = test: MTT assay, tumor cell growth, DU145; type: cell-based; conditions: 6 days incubation, read-out: ID50 (μM) values for Human Tumor Cell Lines, DU145
Procedure: Effect of Saturated Oligoamines on Human Prostate Tumor Cell Growth by the MTT assay. Saturated oligoamines inhibited prostate cancer cell growth in vitro. DU-145 cells were most sensitive and PC-3 cells were less sensitive to the effects of oligoamines. In general, ID50 values of less than 0.5 μM were obtained (Table 2). Even though the PC-3 cells were relatively more resistant to the oligoamines, at a 5 μM concentration the oligoamines reduced the cell number to less than 1% of the control on day 6 of incubation. Tissue cultures and the MTT assay were performed as follows.
Tissue Culture. Cells were seeded into 75 cm^2 culture flasks with 15 ml of Eagle's minimal essential medium supplemented with 10% fetal calf serum and nonessential amino acids. The flasks were incubated in a humidified 95% air/5% CO2 atmosphere. The cells were grown for at least 24 h to ensure that they are in the log phase of growth and then they were treated with the oligoamines. Cells were harvested by treatment for 5 min with STV (saline A, 0.05% trypsin, 0.02% EDTA) at 37° C. The flasks were rapped on the lab bench, pipetted several times and aliquots of cell suspension were withdrawn and counted using a Coulter particle counter that has been standardized for counting each cell line using a hemacytometer.
MTT Assay: Trypsinized cell suspensions were diluted to seed 80 μl suspensions containing 500 cells in each well of a 96 well Corning microtiter plate and incubated overnight at 37° C. in a humidified incubator in 5% CO2. 20 μl of appropriately diluted stock solution of each drug were added to the middle 8 columns of cell suspension in the microtiter plates. Each drug concentration was run in quadruplicate. Outer columns of the plates were used for buffer controls. Cells were incubated with the drug for 6 days at 37° C. in 5% CO2/H2O atmosphere. 25 μl of 5 mg/ml solution of 3-(4,5-dimethylthiazol-2-yl)-2,5-diphenyl tetrazolium bromide (MTT) were added to each well and incubated for 4 hours at 37° C. in 5% CO2/H2O incubator. Cells were lysed by incubating overnight with 100 μl lysis buffer (500 ml of the lysis buffer contains: 100 g lauryl sulfate (SDS), 250 ml of N,N-dimethylformamide, and 2 ml of glacial acetic acid, made up to volume with water; pH 4.8).
The color was monitored at room temperature at 570 nm in a E-max Precision Microplate Reader (Molecular Devices Corporation, Sunnyvale, Calif.) and data was analyzed using cell survival software supplied by Molecular Devices Corporation.

PC-3 Cells = test: Cellular polyamine and oligoamine levels, PC-3 cells (HPLC); type: cell-based
Procedure: Cellular Uptake of Oligoamines. There was considerable uptake of oligoamines by the cancer cell lines; see Table 3A (DuPro cells) and Table 3B (PC-3 cells). […] While not wishing to be limited by any particular theory of operation, the cytotoxicity is likely related to their strong aggregation effect on DNA.
Polyamine Analysis. An appropriate number of cells were taken from harvested samples and centrifuged at 1000 rpm at 4° C. for 5 min. The cells were washed twice with chilled Dulbecco's isotonic phosphate buffer (pH 7.4) by centrifugation at 1000 rpm at 4° C. and resuspended in the same buffer. After the final centrifugation, the supernatant was decanted, and […] of 8% sulfosalycilic acid was added to the cell pellet. The cells were sonicated, and the mixture was kept at 4° C. for at least 1 h. After centrifugation at 8000 g for 5 min, the supernatant was removed for analysis. An appropriate volume (50-100 μl) was fluorescence-labeled by derivatizing with dansyl chloride. Labeled polyamines were loaded onto a C-18 high-performance liquid chromatography column and separated by gradient elution with acetonitrile/water at 50° C. Peaks were detected and quantitated using Shimadzu HPLC fluorescence monitor coupled with a Spectra-Physics peak integrator. Because polyamine levels vary with environmental conditions, control cultures were sampled for each experiment.

[1] = Solubility in water for injection; type: physicochemical; conditions: dosing solution, 6.25 mg/kg in 0.1 mL/10 g body weight
Procedure: Response of implanted sc DU-145 prostate tumors to treatment with SL-11159 and SL-11226. This experiment evaluates the antitumor efficacy of SLIL Biomedical Corporation compounds (SL-11159, SL-11226) against subcutaneously-implanted DU-145 human prostate tumor xenografts in male NCr-nu (line 3A10F17T1) mice. All compounds were tested at a single dose level when administered intravenously (iv), at 6.25 mg/kg. Both SL-11159 and SL-11226 were prepared in water for injection (soluble); the injection volume was 0.1 mL/10 g body weight.

[2] = PC-3, Day 4 of Treatment, analog conc. 1 μM
[3] = PC-3, Day 4 of Treatment, analog conc. 5 μM
[4] = PC-3, Day 6 of Treatment, analog conc. 1 μM

SMILES	Conc. (μM) at the start of DNA Aggregation (Calf-thymus DNA)	IC50 (DU145)	Polyamine levels, Analog (cellular oligoamine level) (PC-3 Cells; [2])	Polyamine levels, Put (PC-3 Cells; [2])	Polyamine levels, Spd (PC-3 Cells; [2])	Polyamine levels, Spm (PC-3 Cells; [2])	Polyamine levels, Analog (cellular oligoamine level) (PC-3 Cells; [3])	Polyamine levels, Put (PC-3 Cells; [3])	Polyamine levels, Spm (PC-3 Cells; [3])	Polyamine levels, Analog (cellular oligoamine level) (PC-3 Cells; [4])	Polyamine levels, Put (PC-3 Cells; [4])	solubility in water for injection [1]	Polyamine levels, Spd (PC-3 Cells; [3])
CCNCCCCNCCCCNCCCCNCCCCNCCCCNCCCCNCCCCNCCCCNCCCCNCC.Cl.Cl.Cl.Cl.Cl.Cl.Cl.Cl.Cl.Cl [SL-11159]	2.5 µM	0.15 µM	0.513 nmoles/10^6 cells	0.525 nmoles/10^6 cells	0.531 nmoles/10^6 cells	0.300 nmoles/10^6 cells	0.388 nmoles/10^6 cells	0.670 nmoles/10^6 cells	0.240 nmoles/10^6 cells	1.026 nmoles/10^6 cells	0.640 nmoles/10^6 cells	soluble	–
CCNCCCCNCCCCNCCCCNCCCCNCCCCNCCCCNCCCCNCCCCNCCCCNCCCCNCCCCNCC.Cl.Cl.Cl.Cl.Cl.Cl.Cl.Cl.Cl.Cl.Cl.Cl [SL-11226]	2.2 µM	0.08 µM	0.021 nmoles/10^6 cells	0.573 nmoles/10^6 cells	–	–	0.026 nmoles/10^6 cells	0.985 nmoles/10^6 cells	–	–	–	soluble	0.071 nmoles/10^6 cells
